Test results as given in patent US10246453B2, “Benzenesulfonamide compounds and their use as therapeutic agents” (Xenon Pharmaceuticals Inc., priority 2016, dated 2019).
Structures can show the parent of a compound that is named as a salt.

How the values were obtained:
[1] = target: T1, NaV1.1 (Homo sapiens (Human), UniProt P35498); test: Sodium Influx Assay (Flux), NaV1.1; assay type: cell-based; details: Trex HEK293 cells, ANG2 dye; arithmetic mean
[2] = target: T2, NaV1.6 (Homo sapiens (Human), UniProt Q9UQD0); test: Electrophysiological Assay (EP), patch voltage clamp, NaV1.6; assay type: cell-based; details: HEK-293 cells, whole-cell patch clamp, inactivated state; arithmetic mean
T2 sequence (Q9UQD0 whole entry): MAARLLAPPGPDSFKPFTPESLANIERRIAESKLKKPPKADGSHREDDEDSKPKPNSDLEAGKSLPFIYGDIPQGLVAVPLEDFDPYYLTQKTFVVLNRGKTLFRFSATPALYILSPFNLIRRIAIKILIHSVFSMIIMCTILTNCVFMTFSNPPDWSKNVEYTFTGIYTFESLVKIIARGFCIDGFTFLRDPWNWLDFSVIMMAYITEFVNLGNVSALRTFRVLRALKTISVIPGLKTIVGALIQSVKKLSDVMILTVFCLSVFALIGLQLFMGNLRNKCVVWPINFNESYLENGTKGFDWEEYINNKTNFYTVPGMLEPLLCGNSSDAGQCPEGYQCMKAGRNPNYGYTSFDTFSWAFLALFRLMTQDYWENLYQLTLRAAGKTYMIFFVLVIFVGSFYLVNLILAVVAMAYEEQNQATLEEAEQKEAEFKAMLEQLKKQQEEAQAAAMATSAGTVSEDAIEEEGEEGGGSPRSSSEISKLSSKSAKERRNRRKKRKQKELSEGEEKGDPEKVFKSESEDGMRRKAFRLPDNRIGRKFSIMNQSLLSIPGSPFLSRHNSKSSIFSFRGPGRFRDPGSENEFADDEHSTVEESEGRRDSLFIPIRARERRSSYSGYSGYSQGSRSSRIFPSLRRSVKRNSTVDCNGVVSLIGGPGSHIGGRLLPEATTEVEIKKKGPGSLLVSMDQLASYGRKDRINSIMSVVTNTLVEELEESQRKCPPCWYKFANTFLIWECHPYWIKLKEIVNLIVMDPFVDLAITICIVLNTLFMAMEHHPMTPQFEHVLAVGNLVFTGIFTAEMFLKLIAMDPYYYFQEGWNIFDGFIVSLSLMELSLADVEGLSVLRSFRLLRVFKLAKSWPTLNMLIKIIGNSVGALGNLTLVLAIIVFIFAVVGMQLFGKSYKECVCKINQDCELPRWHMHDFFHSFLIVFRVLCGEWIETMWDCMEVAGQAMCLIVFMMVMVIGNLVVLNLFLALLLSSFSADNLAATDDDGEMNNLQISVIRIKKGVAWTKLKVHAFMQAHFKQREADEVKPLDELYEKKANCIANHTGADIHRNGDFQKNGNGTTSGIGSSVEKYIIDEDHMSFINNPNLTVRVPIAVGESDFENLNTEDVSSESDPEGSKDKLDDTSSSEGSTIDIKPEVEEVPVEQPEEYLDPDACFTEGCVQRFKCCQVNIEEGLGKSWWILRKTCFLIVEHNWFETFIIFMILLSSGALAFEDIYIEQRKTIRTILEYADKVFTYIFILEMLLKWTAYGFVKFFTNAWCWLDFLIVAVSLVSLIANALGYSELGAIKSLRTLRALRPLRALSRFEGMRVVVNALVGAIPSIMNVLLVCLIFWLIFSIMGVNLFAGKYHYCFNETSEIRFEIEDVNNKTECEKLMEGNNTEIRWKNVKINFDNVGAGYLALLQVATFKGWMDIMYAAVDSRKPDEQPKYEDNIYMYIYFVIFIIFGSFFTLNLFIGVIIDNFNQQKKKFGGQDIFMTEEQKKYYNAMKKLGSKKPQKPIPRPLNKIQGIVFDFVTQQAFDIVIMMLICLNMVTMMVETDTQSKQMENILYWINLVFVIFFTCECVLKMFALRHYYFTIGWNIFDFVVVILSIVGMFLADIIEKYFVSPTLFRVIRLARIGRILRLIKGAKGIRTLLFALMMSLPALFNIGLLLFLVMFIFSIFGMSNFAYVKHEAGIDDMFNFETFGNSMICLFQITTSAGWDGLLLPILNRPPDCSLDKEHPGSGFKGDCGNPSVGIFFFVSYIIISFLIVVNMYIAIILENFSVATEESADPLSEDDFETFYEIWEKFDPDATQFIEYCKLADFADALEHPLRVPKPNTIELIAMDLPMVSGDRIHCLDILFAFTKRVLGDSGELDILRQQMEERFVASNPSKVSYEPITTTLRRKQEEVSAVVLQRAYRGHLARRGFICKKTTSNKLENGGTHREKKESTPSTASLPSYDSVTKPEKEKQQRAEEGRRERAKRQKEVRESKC
Description: Patch voltage clamp electrophysiology allows for the direct measurement and quantification of block of voltage-gated sodium channels (Nay's), and allows the determination of the time-and voltage-dependence of block which has been interpreted as differential binding to the resting, open, and inactivated states of the sodium channel (Hille, B., Journal of General Physiology (1977), 69: 497-515).
NaV1.1, NaV1.5 and NaV1.6 cDNAs (NM_001165964 (SCN1A), NM_000335 (SCN5A) and NM_014191 (SCN8A), respectively) were stably expressed in HEK-293 cells.
(§1) Sodium currents were measured using the patch clamp technique in the whole-cell configuration using either a PatchXpress automated voltage clamp or manually using an Axopatch 200B (Axon Instruments) or Model 2400 (A-M systems) amplifier.
The manual voltage clamp protocol was as follows: Borosilicate glass micropipettes were fire-polished to a tip diameter yielding a resistance of 2-4 Mohms in the working solutions. […] In some studies, the external sodium was reduced by equimolar replacement with choline. Osmolarity in the CsF internal and NaCl external solutions was adjusted to 300 mOsm/kg and 310 mOsm/kg with glucose, respectively. All recordings were performed at ambient temperature in a bath chamber with a volume of 150 μL. Control sodium currents were measured in 0.5% DMSO. Controls and representative compounds of the invention were applied to the recording chamber through a 4-pinch or 8-pinch valve bath perfusion system manufactured by ALA Scientific Instruments.
Currents were recorded at 40 kHz sampling frequency, filtered at […], and stored using a Digidata-1322A analogue/digital interface with the pClamp software (Axon Instruments). Series resistance compensation was applied (60-80%). […] All statistics in this study are given as mean±SD.
The membrane potential was maintained at a voltage where inactivation of the channel is complete. The voltage is then stepped back to a very negative (Vhold=−150 mV) voltage for 20 ms and then a test pulse is applied to quantify the compound block. The 20 ms brief repolarization was long enough for compound-free channels to completely recover from fast inactivation, but the compound-bound channels recovered more slowly such that negligible recovery could occur during this interval. The percent decrease in sodium current following wash-on of compound was taken as the percent block of sodium channels.

[3] = target: T1, NaV1.1; test: Electrophysiological Assay (EP), patch voltage clamp, NaV1.1; assay type: cell-based; details: HEK-293 cells, whole-cell patch clamp, inactivated state; arithmetic mean
Experimental: as §1
In some studies, the external sodium was reduced by equimolar replacement with choline. […] All recordings were performed at ambient temperature in a bath chamber with a volume of 150 μL. Control sodium currents were measured in 0.5% DMSO. Controls and representative compounds of the invention were applied to the recording chamber through a 4-pinch or 8-pinch valve bath perfusion system manufactured by ALA Scientific Instruments.
Series resistance compensation was applied (60-80%). […] All statistics in this study are given as mean±SD.
The membrane potential was maintained at a voltage where inactivation of the channel is complete. The voltage is then stepped back to a very negative (Vhold=−150 mV) voltage for 20 ms and then a test pulse is applied to quantify the compound block. […] The percent decrease in sodium current following wash-on of compound was taken as the percent block of sodium channels.

[4] = target: T2, NaV1.6; test: Sodium Influx Assay (Flux), NaV1.6; details: read-out: Flux NaV1.6 IC50; Trex HEK293 cells, ANG2 dye; arithmetic mean
[5] = target: NaV1.5 (Homo sapiens (Human), UniProt Q14524); test: Sodium Influx Assay (Flux), NaV1.5; details: read-out: Flux NaV1.5 IC50; Trex HEK293 cells, ANG2 dye; arithmetic mean
NaV1.5, sequence (Q14524 other isoform, or with tags, fused parts or gaps): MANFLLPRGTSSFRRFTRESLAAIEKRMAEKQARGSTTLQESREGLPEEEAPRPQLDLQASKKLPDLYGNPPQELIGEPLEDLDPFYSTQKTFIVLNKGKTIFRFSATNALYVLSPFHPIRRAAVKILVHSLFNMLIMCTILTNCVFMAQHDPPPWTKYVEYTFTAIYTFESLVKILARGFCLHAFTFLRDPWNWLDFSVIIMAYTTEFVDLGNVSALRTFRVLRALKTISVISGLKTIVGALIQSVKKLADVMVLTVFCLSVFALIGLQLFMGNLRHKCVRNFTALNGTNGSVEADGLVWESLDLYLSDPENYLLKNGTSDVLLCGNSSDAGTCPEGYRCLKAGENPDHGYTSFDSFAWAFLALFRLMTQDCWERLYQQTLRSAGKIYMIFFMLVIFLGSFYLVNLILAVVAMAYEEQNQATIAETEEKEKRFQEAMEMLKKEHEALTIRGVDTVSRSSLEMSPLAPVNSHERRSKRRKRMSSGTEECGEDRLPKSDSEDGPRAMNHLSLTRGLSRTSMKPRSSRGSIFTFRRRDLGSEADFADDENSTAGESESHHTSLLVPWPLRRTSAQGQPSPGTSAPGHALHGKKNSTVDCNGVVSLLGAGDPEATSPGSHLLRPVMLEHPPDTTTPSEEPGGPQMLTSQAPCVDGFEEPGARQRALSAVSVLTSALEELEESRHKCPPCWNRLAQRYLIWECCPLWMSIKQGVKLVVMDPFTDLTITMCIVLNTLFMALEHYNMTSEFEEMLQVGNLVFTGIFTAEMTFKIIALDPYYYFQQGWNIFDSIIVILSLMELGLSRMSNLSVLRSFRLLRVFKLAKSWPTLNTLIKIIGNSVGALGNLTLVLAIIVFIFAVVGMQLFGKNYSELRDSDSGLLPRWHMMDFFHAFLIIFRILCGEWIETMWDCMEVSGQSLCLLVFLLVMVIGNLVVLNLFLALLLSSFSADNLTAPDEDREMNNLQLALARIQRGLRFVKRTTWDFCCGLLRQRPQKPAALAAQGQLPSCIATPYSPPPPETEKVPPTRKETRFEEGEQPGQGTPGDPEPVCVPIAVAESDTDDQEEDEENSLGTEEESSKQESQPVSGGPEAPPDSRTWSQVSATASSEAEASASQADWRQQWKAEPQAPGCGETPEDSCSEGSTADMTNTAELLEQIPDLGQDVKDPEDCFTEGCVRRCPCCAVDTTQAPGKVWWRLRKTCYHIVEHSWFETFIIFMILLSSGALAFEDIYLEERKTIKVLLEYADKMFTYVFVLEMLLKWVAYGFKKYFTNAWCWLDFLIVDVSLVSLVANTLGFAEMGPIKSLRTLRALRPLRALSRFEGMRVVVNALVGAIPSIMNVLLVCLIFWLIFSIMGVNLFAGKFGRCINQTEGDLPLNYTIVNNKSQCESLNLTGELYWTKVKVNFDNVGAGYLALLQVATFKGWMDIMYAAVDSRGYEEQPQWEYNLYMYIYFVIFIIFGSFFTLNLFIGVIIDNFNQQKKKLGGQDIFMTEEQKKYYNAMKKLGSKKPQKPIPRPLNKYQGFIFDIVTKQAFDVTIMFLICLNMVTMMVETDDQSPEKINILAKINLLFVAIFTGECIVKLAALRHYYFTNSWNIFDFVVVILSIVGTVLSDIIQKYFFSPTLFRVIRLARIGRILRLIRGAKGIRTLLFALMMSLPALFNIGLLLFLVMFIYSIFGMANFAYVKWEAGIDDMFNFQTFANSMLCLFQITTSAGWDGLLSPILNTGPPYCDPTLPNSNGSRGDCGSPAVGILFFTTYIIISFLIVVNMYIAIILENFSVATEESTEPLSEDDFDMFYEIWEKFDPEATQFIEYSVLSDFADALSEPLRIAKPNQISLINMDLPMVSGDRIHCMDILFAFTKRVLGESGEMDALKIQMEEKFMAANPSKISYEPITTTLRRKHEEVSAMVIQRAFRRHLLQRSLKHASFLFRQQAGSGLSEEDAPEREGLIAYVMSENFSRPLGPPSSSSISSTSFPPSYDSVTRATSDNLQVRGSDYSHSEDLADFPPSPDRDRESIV

SMILES: C[C@H]1CN(Cc2ccccc2)C[C@@H]1Nc1ccc(S(=O)(=O)Nc2nccs2)cc1Cl (relative stereo) [Example 74, 4-((trans-1-benzyl-4-methylpyrrolidin-3-yl)amino)-3-chloro-N-(thiazol-2-yl)benzenesulfonamide]
- IC50 [1]: 1.54 µM
- IC50 [2]: 0.025 µM
- IC50 [3]: 1.03 µM
- IC50 [4]: 0.167 µM
- IC50 [5]: 8.67 µM

SMILES: O=S(=O)(Nc1nccs1)c1ccc(OC2CCN(Cc3cccc(C(F)F)c3)CC2)c(Cl)c1 [Example 11, 3-chloro-4-((1-(3-(difluoromethyl)benzyl)piperidin-4-yl)oxy)-N-(thiazol-2-yl)benzenesulfonamide]
- IC50 [1]: 8.12 µM
- IC50 [2]: 0.082 µM
- IC50 [3]: 7.21 µM
- IC50 [4]: 0.253 µM
- IC50 [5]: 7.58 µM

SMILES: O=S(=O)(Nc1nccs1)c1ccc(O[C@@H]2C[C@H]3CC[C@@H](C2)N3Cc2ccccc2)c(Cl)c1 [Example 16, 4-(((1R,3s,5S)-8-benzyl-8-azabicyclo[3.2.1]octan-3-yl)oxy)-3-chloro-N-(thiazol-2-yl)benzenesulfonamide]
- IC50 [1]: 22.8 µM
- IC50 [2]: 0.03 µM
- IC50 [3]: > 10 µM
- IC50 [4]: 0.429 µM
- IC50 [5]: > 30 µM

SMILES: CC1(Nc2ccc(S(=O)(=O)Nc3nccs3)cc2Cl)CN(Cc2ccccc2)C1 [Example 25, 4-((1-benzyl-3-methylazetidin-3-yl)amino)-3-chloro-N-(thiazol-2-yl)benzenesulfonamide 2,2,2-trifluoroacetate]
- IC50 [1]: 5.76 µM
- IC50 [2]: 0.138 µM
- IC50 [3]: > 10 µM
- IC50 [4]: 0.569 µM
- IC50 [5]: 24.7 µM

SMILES: CN(c1ccc(S(=O)(=O)Nc2nccs2)cc1Cl)[C@H]1CCN(Cc2cccc(Cl)c2)C1 [Example 27, (S)-3-chloro-4-((1-(3-chlorobenzyl)pyrrolidin-3-yl)(methyl)amino)-N-(thiazol-2-yl)benzenesulfonamide]
- IC50 [1]: 3.73 µM
- IC50 [2]: 0.07 µM
- IC50 [3]: 3.41 µM
- IC50 [4]: 0.437 µM
- IC50 [5]: 6.9 µM

SMILES: CN(c1ccc(S(=O)(=O)Nc2nccs2)cc1Cl)[C@H]1CCN(Cc2cccc(C(F)F)c2)C1 [Example 28, (S)-3-chloro-4-((1-(3-(difluoromethyl)benzyl)pyrrolidin-3-yl)(methyl)amino)-N-(thiazol-2-yl)benzenesulfonamide]
- IC50 [1]: 3.23 µM
- IC50 [2]: 0.036 µM
- IC50 [3]: 4.21 µM
- IC50 [4]: 0.221 µM
- IC50 [5]: 5.73 µM

SMILES: CN(c1ccc(S(=O)(=O)Nc2ncns2)cc1Cl)[C@H]1CCN(Cc2cc(Cl)ccc2F)C1 [Example 33, (S)-3-chloro-4-((1-(5-chloro-2-fluorobenzyl)pyrrolidin-3-yl)(methyl)amino)-N-(1,2,4-thiadiazol-5-yl)benzenesulfonamide 2,2,2-trifluoroacetate]
- IC50 [1]: 5.11 µM
- IC50 [2]: 0.07 µM
- IC50 [3]: > 10 µM
- IC50 [4]: 0.041 µM
- IC50 [5]: 7.79 µM

SMILES: CCN(c1ccc(S(=O)(=O)Nc2ncns2)cc1Cl)[C@H]1CCN(Cc2ccccc2)C1 [Example 36, (S)-4-((1-benzylpyrrolidin-3-yl)(ethyl)amino)-3-chloro-N-(1,2,4-thiadiazol-5-yl)benzenesulfonamide]
- IC50 [1]: > 30 µM
- IC50 [2]: 0.685 µM
- IC50 [3]: > 10 µM
- IC50 [4]: 0.615 µM
- IC50 [5]: > 30 µM

SMILES: CN(c1cc(F)c(S(=O)(=O)Nc2cccc(F)n2)cc1Cl)[C@H]1CCN(Cc2ccccc2)C1 [Example 40, (S)-4-((1-benzylpyrrolidin-3-yl)(methyl)amino)-5-chloro-2-fluoro-N-(6-fluoropyridin-2-yl)benzenesulfonamide bis(trifluoroacetic acid) salt]
- IC50 [1]: 6.79 µM
- IC50 [2]: 3.88 µM
- IC50 [3]: > 10 µM
- IC50 [4]: 3.25 µM
- IC50 [5]: 15.8 µM

SMILES: CN(c1ccc(S(=O)(=O)Nc2cscn2)cc1Cl)[C@H]1CCN(Cc2ccccc2)C1 [Example 41, (S)-4-((1-benzylpyrrolidin-3-yl)(methyl)amino)-3-chloro-N-(thiazol-4-yl)benzenesulfonamide 2,2,2-trifluoroacetate]
- IC50 [1]: 6.64 µM
- IC50 [2]: 0.748 µM
- IC50 [3]: > 10 µM
- IC50 [4]: 1.04 µM
- IC50 [5]: 9.01 µM

SMILES: C[C@H](c1ccccc1)N1CC[C@H](N(C)c2ccc(S(=O)(=O)Nc3nccs3)cc2Cl)C1 [Example 44, 3-chloro-4-(methyl((S)-1-((R)-1-phenylethyl)pyrrolidin-3-yl)amino)-N-(thiazol-2-yl)benzenesulfonamide]
- IC50 [1]: 10.7 µM
- IC50 [2]: 0.089 µM
- IC50 [3]: > 10 µM
- IC50 [4]: 0.1 µM
- IC50 [5]: > 30 µM

SMILES: Cc1cc(C)cc(CN2CC[C@H](Oc3ccc(S(=O)(=O)Nc4ncns4)cc3Cl)C2)c1 [Example 99, (S)-3-chloro-4-(1-(3,5-dimethylbenzyl)pyrrolidin-3-yloxy)-N-(1,2,4-thiadiazol-5-yl)benzenesulfonamide 2,2,2-trifluoroacetate]
- IC50 [1]: > 30 µM
- IC50 [2]: 4.44 µM
- IC50 [4]: 1.41 µM
- IC50 [5]: > 30 µM

SMILES: Cc1c(O[C@@]2(C)CCN(Cc3ccccc3)C2)cc(F)c(S(=O)(=O)Nc2cscn2)c1F [Example 158, (S)-4-((1-benzyl-3-methylpyrrolidin-3-yl)oxy)-2,6-difluoro-3-methyl-N-(thiazol-4-yl)benzenesulfonamide formate]
- IC50 [1]: 24.2 µM
- IC50 [2]: 0.008 µM
- IC50 [4]: 0.009 µM
- IC50 [5]: > 30 µM

SMILES: Cc1cccc(CN2CC[C@H](N(C)c3cc(F)c(S(=O)(=O)Nc4cscn4)c(F)c3Cl)C2)n1 [Example 267, (S)-3-chloro-2,6-difluoro-4-(methyl(1-((6-methylpyridin-2-yl)methyl)pyrrolidin-3-yl)amino)-N-(thiazol-4-yl)benzenesulfonamide]
- IC50 [1]: > 30 µM
- IC50 [2]: 0.066 µM
- IC50 [4]: 0.182 µM
- IC50 [5]: > 30 µM

SMILES: Cc1cc(S(=O)(=O)Nc2ccsn2)c(F)cc1N(C)[C@H]1CCN(Cc2ccccc2)C1 [Example 277, (S)-4-((1-benzylpyrrolidin-3-yl)(methyl)amino)-2-fluoro-N-(isothiazol-3-yl)-5-methylbenzenesulfonamide 2,2,2-trifluoroacetate]
- IC50 [1]: 24.9 µM
- IC50 [2]: 0.027 µM
- IC50 [4]: 0.153 µM
- IC50 [5]: > 30 µM

SMILES: Cc1c(OC2CCN([C@H](C)c3ccccc3)CC2)cc(F)c(S(=O)(=O)Nc2cscn2)c1F [Example 282, (R)-2,6-difluoro-3-methyl-4-((1-(1-phenylethyl)piperidin-4-yl)oxy)-N-(thiazol-4-yl)benzenesulfonamide 2,2,2-trifluoroacetate]
- IC50 [1]: 17.3 µM
- IC50 [2]: 0.005 µM
- IC50 [4]: 0.005 µM
- IC50 [5]: 23.9 µM

SMILES: C[C@H](c1ccccc1)N1CCC(Oc2cc(F)c(S(=O)(=O)Nc3cscn3)c(F)c2)CC1 [Example 291, (R)-2,6-difluoro-4-((1-(1-phenylethyl)piperidin-4-yl)oxy)-N-(thiazol-4-yl)benzenesulfonamide 2,2,2-trifluoroacetate]
- IC50 [1]: > 30 µM
- IC50 [2]: 0.447 µM
- IC50 [4]: 0.578 µM
- IC50 [5]: > 30 µM

SMILES: Cc1c(N(C)[C@H]2CCN(Cc3ccccc3)C2)cc(F)c(S(=O)(=O)Nc2ncns2)c1F [Example 295, (S)-4-((1-benzylpyrrolidin-3-yl)(methyl)amino)-2,6-difluoro-3-methyl-N-(1,2,4-thiadiazol-5-yl)benzenesulfonamide]
- IC50 [1]: 17.1 µM
- IC50 [2]: 0.001 µM
- IC50 [4]: 0.009 µM
- IC50 [5]: 25.9 µM
